# ± gives the standard deviation of the averaged measurements.
# System: U-2 OS
# Assay: cell painting activity score (Mahalanobis distance from DMSO wells); higher = stronger morphological phenotype
# Conditions: 40 µM; 24 h
# In short: (§1)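 Images taken on an Opera Phenix of U-2 OS cells stained with MitoTracker, concanavalin A, phalloidin, wheat germ agglutinin, Hoechst and SYTO 14 were processed in CellProfiler, with features normalized to DMSO cells on the same plate. The cells, about 1,500 per well in 384-well plates, had been treated by pin tool for 24 h at 37 °C, usually at six 2-fold concentrations from 20 μM to 625 nM. The activity score measures Mahalanobis distance from DMSO wells, and cell count is expressed relative to DMSO wells. Each value averages four replicate plates.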
row,SMILES,cell painting activity score
1,Cl.Cl.O=C(O)Cn1nnc(-c2ccc(CN(CCCCOc3ccc(CN4CCCC4)cc3)CCc3ccccc3)cc2)n1,11.5
2,Cc1cc2c(C(C)C)c(O)c(O)c(C=O)c2c(O)c1-c1c(C)cc2c(C(C)C)c(O)c(O)c(C=O)c2c1O,22.1

# Same assay, conditions: 80 µM; 24 h
row,SMILES,cell painting activity score
1,Cl.Cl.O=C(O)Cn1nnc(-c2ccc(CN(CCCCOc3ccc(CN4CCCC4)cc3)CCc3ccccc3)cc2)n1,32
2,Cc1cc2c(C(C)C)c(O)c(O)c(C=O)c2c(O)c1-c1c(C)cc2c(C(C)C)c(O)c(O)c(C=O)c2c1O,24.1

# System: U-2 OS
# Assay: relative cell count vs DMSO (cell painting) (fraction of DMSO control); higher = more cells remaining (less cytotoxic)
# Conditions: 0.625 µM; 24 h
# In short: as §1
row,SMILES,relative cell count
1,Cl.Cl.O=C(O)Cn1nnc(-c2ccc(CN(CCCCOc3ccc(CN4CCCC4)cc3)CCc3ccccc3)cc2)n1,1.2
2,Cn1c(=O)n(-c2ccc(C(C)(C)C#N)cc2)c2c3cc(-c4cnc5ccccc5c4)ccc3ncc21,0.853
3,COC[C@H]1OC(=O)c2coc3c2[C@@]1(C)C1=C(C3=O)[C@@H]2CCC(=O)[C@@]2(C)C[C@H]1OC(C)=O,0.905 ± 0.054
4,Oc1cccc(O)c1O,0.96
5,O=S1(=O)CCc2ccccc21,1.03
6,c1ccc(-c2noc(NC3CCCC3)n2)cc1,1.03
7,CCOc1cc2ncc(C#N)c(Nc3ccc(OCc4ccccn4)c(Cl)c3)c2cc1NC(=O)/C=C/CN(C)C,0.995
8,Cc1cc2c(C(C)C)c(O)c(O)c(C=O)c2c(O)c1-c1c(C)cc2c(C(C)C)c(O)c(O)c(C=O)c2c1O,1.09
9,Cc1cc(-c2ccccc2)cc(C(=O)NNS(=O)(=O)c2ccccc2)c1F,0.914
10,O=C(NNS(=O)(=O)c1ccccc1F)c1cc(F)cc(-c2ccccn2)c1,1

# Same assay, conditions: 1.25 µM; 24 h
row,SMILES,relative cell count
1,Cl.Cl.O=C(O)Cn1nnc(-c2ccc(CN(CCCCOc3ccc(CN4CCCC4)cc3)CCc3ccccc3)cc2)n1,1.1
2,Cn1c(=O)n(-c2ccc(C(C)(C)C#N)cc2)c2c3cc(-c4cnc5ccccc5c4)ccc3ncc21,0.819
3,COC[C@H]1OC(=O)c2coc3c2[C@@]1(C)C1=C(C3=O)[C@@H]2CCC(=O)[C@@]2(C)C[C@H]1OC(C)=O,0.905 ± 0.038
4,Oc1cccc(O)c1O,0.998
5,O=S1(=O)CCc2ccccc21,0.988
6,c1ccc(-c2noc(NC3CCCC3)n2)cc1,1.02
7,CCOc1cc2ncc(C#N)c(Nc3ccc(OCc4ccccn4)c(Cl)c3)c2cc1NC(=O)/C=C/CN(C)C,0.842
8,Cc1cc2c(C(C)C)c(O)c(O)c(C=O)c2c(O)c1-c1c(C)cc2c(C(C)C)c(O)c(O)c(C=O)c2c1O,1.1
9,Cc1cc(-c2ccccc2)cc(C(=O)NNS(=O)(=O)c2ccccc2)c1F,0.965
10,O=C(NNS(=O)(=O)c1ccccc1F)c1cc(F)cc(-c2ccccn2)c1,0.967

# Same assay, conditions: 2.5 µM; 24 h
row,SMILES,relative cell count
1,Cl.Cl.O=C(O)Cn1nnc(-c2ccc(CN(CCCCOc3ccc(CN4CCCC4)cc3)CCc3ccccc3)cc2)n1,1.12
2,Cn1c(=O)n(-c2ccc(C(C)(C)C#N)cc2)c2c3cc(-c4cnc5ccccc5c4)ccc3ncc21,0.802
3,COC[C@H]1OC(=O)c2coc3c2[C@@]1(C)C1=C(C3=O)[C@@H]2CCC(=O)[C@@]2(C)C[C@H]1OC(C)=O,0.882 ± 0.07
4,Oc1cccc(O)c1O,0.978
5,O=S1(=O)CCc2ccccc21,1.02
6,c1ccc(-c2noc(NC3CCCC3)n2)cc1,1.06
7,CCOc1cc2ncc(C#N)c(Nc3ccc(OCc4ccccn4)c(Cl)c3)c2cc1NC(=O)/C=C/CN(C)C,0.811
8,Cc1cc2c(C(C)C)c(O)c(O)c(C=O)c2c(O)c1-c1c(C)cc2c(C(C)C)c(O)c(O)c(C=O)c2c1O,1.09
9,Cc1cc(-c2ccccc2)cc(C(=O)NNS(=O)(=O)c2ccccc2)c1F,0.931
10,O=C(NNS(=O)(=O)c1ccccc1F)c1cc(F)cc(-c2ccccn2)c1,0.966

# Same assay, conditions: 5 µM; 24 h
row,SMILES,relative cell count
1,Cl.Cl.O=C(O)Cn1nnc(-c2ccc(CN(CCCCOc3ccc(CN4CCCC4)cc3)CCc3ccccc3)cc2)n1,1.13
2,Cn1c(=O)n(-c2ccc(C(C)(C)C#N)cc2)c2c3cc(-c4cnc5ccccc5c4)ccc3ncc21,0.83
3,COC[C@H]1OC(=O)c2coc3c2[C@@]1(C)C1=C(C3=O)[C@@H]2CCC(=O)[C@@]2(C)C[C@H]1OC(C)=O,0.873 ± 0.059
4,Oc1cccc(O)c1O,1.02
5,O=S1(=O)CCc2ccccc21,1.05
6,c1ccc(-c2noc(NC3CCCC3)n2)cc1,1.05
7,CCOc1cc2ncc(C#N)c(Nc3ccc(OCc4ccccn4)c(Cl)c3)c2cc1NC(=O)/C=C/CN(C)C,0.76
8,Cc1cc2c(C(C)C)c(O)c(O)c(C=O)c2c(O)c1-c1c(C)cc2c(C(C)C)c(O)c(O)c(C=O)c2c1O,1.02
9,Cc1cc(-c2ccccc2)cc(C(=O)NNS(=O)(=O)c2ccccc2)c1F,0.965
10,O=C(NNS(=O)(=O)c1ccccc1F)c1cc(F)cc(-c2ccccn2)c1,0.955

# Same assay, conditions: 10 µM; 24 h
row,SMILES,relative cell count
1,Cl.Cl.O=C(O)Cn1nnc(-c2ccc(CN(CCCCOc3ccc(CN4CCCC4)cc3)CCc3ccccc3)cc2)n1,1.14
2,Cn1c(=O)n(-c2ccc(C(C)(C)C#N)cc2)c2c3cc(-c4cnc5ccccc5c4)ccc3ncc21,0.788
3,COC[C@H]1OC(=O)c2coc3c2[C@@]1(C)C1=C(C3=O)[C@@H]2CCC(=O)[C@@]2(C)C[C@H]1OC(C)=O,0.837 ± 0.065
4,Oc1cccc(O)c1O,0.974
5,O=S1(=O)CCc2ccccc21,1.02
6,c1ccc(-c2noc(NC3CCCC3)n2)cc1,1.07
7,CCOc1cc2ncc(C#N)c(Nc3ccc(OCc4ccccn4)c(Cl)c3)c2cc1NC(=O)/C=C/CN(C)C,0.778
8,Cc1cc2c(C(C)C)c(O)c(O)c(C=O)c2c(O)c1-c1c(C)cc2c(C(C)C)c(O)c(O)c(C=O)c2c1O,0.937
9,Cc1cc(-c2ccccc2)cc(C(=O)NNS(=O)(=O)c2ccccc2)c1F,0.952
10,O=C(NNS(=O)(=O)c1ccccc1F)c1cc(F)cc(-c2ccccn2)c1,0.925

# Same assay, conditions: 20 µM; 24 h
row,SMILES,relative cell count
1,Cl.Cl.O=C(O)Cn1nnc(-c2ccc(CN(CCCCOc3ccc(CN4CCCC4)cc3)CCc3ccccc3)cc2)n1,1.01
2,Cn1c(=O)n(-c2ccc(C(C)(C)C#N)cc2)c2c3cc(-c4cnc5ccccc5c4)ccc3ncc21,0.765
3,COC[C@H]1OC(=O)c2coc3c2[C@@]1(C)C1=C(C3=O)[C@@H]2CCC(=O)[C@@]2(C)C[C@H]1OC(C)=O,0.785 ± 0.058
4,Oc1cccc(O)c1O,0.973
5,O=S1(=O)CCc2ccccc21,1.02
6,c1ccc(-c2noc(NC3CCCC3)n2)cc1,1.06
7,CCOc1cc2ncc(C#N)c(Nc3ccc(OCc4ccccn4)c(Cl)c3)c2cc1NC(=O)/C=C/CN(C)C,0.757
8,Cc1cc2c(C(C)C)c(O)c(O)c(C=O)c2c(O)c1-c1c(C)cc2c(C(C)C)c(O)c(O)c(C=O)c2c1O,0.551
9,Cc1cc(-c2ccccc2)cc(C(=O)NNS(=O)(=O)c2ccccc2)c1F,0.966
10,O=C(NNS(=O)(=O)c1ccccc1F)c1cc(F)cc(-c2ccccn2)c1,0.939

# Same assay, conditions: 40 µM; 24 h
row,SMILES,relative cell count
1,Cl.Cl.O=C(O)Cn1nnc(-c2ccc(CN(CCCCOc3ccc(CN4CCCC4)cc3)CCc3ccccc3)cc2)n1,0.376
2,Cc1cc2c(C(C)C)c(O)c(O)c(C=O)c2c(O)c1-c1c(C)cc2c(C(C)C)c(O)c(O)c(C=O)c2c1O,0.246

# Same assay, conditions: 80 µM; 24 h
row,SMILES,relative cell count
1,Cl.Cl.O=C(O)Cn1nnc(-c2ccc(CN(CCCCOc3ccc(CN4CCCC4)cc3)CCc3ccccc3)cc2)n1,0.0195
2,Cc1cc2c(C(C)C)c(O)c(O)c(C=O)c2c(O)c1-c1c(C)cc2c(C(C)C)c(O)c(O)c(C=O)c2c1O,0.261
